Results published in patent US12173309B2, “Compounds for increasing genome editing efficiency” (Max-Planck-Gesellschaft zur Förderung der Wissenschaften …, priority 2017, dated 2024).

Tested on: primary Human Epidermal Keratinocytes (HEKa)
Assay: PGE of HPRT with Cpf1 electroporation in non-pluripotent cells
Type: cell-based
Protocol: Stem cell lines cultured for this project included human 409-B2 hiPSC ([…], Riken BioResource Center) and SC102A1 hiPSC ([…], BioCat GmbH), chimpanzee SandraA ciPSC (female, Mora-Bermúdez et al. 201637), as well as H9 hESC ([…], WiCell Research Institute, Ethics permit AZ 3.04.02/0118). Stem cell lines were grown on Matrigel Matrix (Corning, 35248), and mTeSR1 (StemCell Technologies, 05851) with mTeSR1 supplement (StemCell Technologies, 05852) was used as culture media. Non-pluripotent cell types and their respective media used were: HEK293 (ECACC, 85120602) with DMEM/F-12 (Gibco, 31330-038) supplemented with 10% FBS (SIGMA, F2442) and 1% NEAA (SIGMA, M7145); K562 (ECACC, 89121407) with IMDM (ThermoFisher, 12440053) supplemented with 10% FBS; CD4^+ T (HemaCare, PB04C-1) with RPMI 1640 (ThermoFisher, 11875-093) supplemented with 10% FBS, and activated with Dynabeads Human T-Activator (CD3/CD28) (ThermoFisher, 11131D); CD34^+ progenitor (HemaCare, M34C-1) with StemSpan SFEM (Stemcell, 09600) supplemented with StemSpan CC110 (StemCell, 02697); and HEKa (Gibco, C0055C) with Medium 154 (ThermoFisher, M154500) and Human Keratinocyte Growth Supplement (ThermoFisher, S0015). Cells were grown at 37° C. in a humidified incubator gassed with 5% CO2. Media was replaced every day for stem cells and every second day for non-pluripotent cell lines. Cell cultures were maintained 4-6 days until ˜80% confluency, and subcultured at a 1:6 to 1:10 dilution. Adherent cells were dissociated using EDTA (VWR, 437012C). The media was supplemented with 10 μM Rho-associated protein kinase (ROCK) inhibitor Y-27632 (Calbiochem, 688000) after cell splitting for one day in order to increase cell survival.
The recombinant A.s. Cpf1 and S.p. Cas9 protein and electroporation enhancer was ordered from IDT (Coralville, USA) and nucleofection was done using the manufacturer's protocol, except for the following alterations. […] Cells were counted using the Countess Automated Cell Counter (Invitrogen). […]

| SMILES | effect on PGE efficiency |
| --- | --- |
| O=c1cc(N2CCOCC2)oc2c1ccc1ccccc12 [NU7026] | disruptive effect |
| NS(=O)(=O)OC[C@@H]1C[C@@H](n2ccc3c(N[C@H]4CCc5ccccc54)ncnc32)C[C@@H]1O [MLN4924, Pevonedistat] | disruptive effect |
| CC(C)C1=CC23CCC4C(C)(C(=O)O)CCCC4(C)C2CC1C(C(=O)O)C3C(=O)O (stereo not drawn) [NSC 15520, Fumaropimaric acid] | disruptive effect |
